Data as given in patent US7772260B2, “Imidazo[2,1-b]-1,3,4-thiadiazole sulfonamides” (Aegera Therapeutics Inc., priority 2001, dated 2010).
Structures can show the parent of a compound that is named as a salt.

Each molecule was assayed on SCG neurons (assay: cells). Conditions: Rattus norvegicus, Neuron; Taxol™ (50 ng/mL), viability 48 hours later, MTS; read-out: IC(50), protection of SCG neurons from Taxol killing.
Type: cell-based, Sprague Dawley rats
Protocol: Taxol™ is regularly used in breast cancer chemotherapy. In cancer cells Taxol™ binds to the cyto-skeletal protein tubulin, thereby inhibiting normal microtubular assembly and inducing cellular apoptosis. Despite its potency as an anti-tumour agent, Taxol™ is also toxic to neurons, inducing dose limiting peripheral neuropathies. The addition of Taxol™ (100 ng/mL) to cultured SCG neurons induces the degradation or loss of upwards of 80% of the neurons.
FIG. 1 illustrates the protection provided by compound 1 (referred to here as AEG3482) against Taxol™ induced killing. PI Sprague Dawley rat SCG neurons were cultured and incubated with NGF (50 ng/mL) for 5 days.
For `NS(=O)(=O)c1nn2c(Br)c(C(F)(F)F)nc2s1` [Compound 134, 5-Bromo-6-trifluoromethylimidazo[2,1-b]-1,3,4-thiadiazole-2-sulfonamide], the IC50 was 1 µM. With `NS(=O)(=O)c1nn2c(Sc3ccccc3)c(-c3ccc4ccccc4c3)nc2s1` [Compound 135, 5-Thiophenyl-6-(2-naphthyl)imidazo[2,1-b]-1,3,4-thiadiazole-2-sulfonamide] the IC50 was 7 µM. In the case of `Nc1nnc(Sc2c(-c3ccc4ccccc4c3)nc3sc(S(N)(=O)=O)nn23)s1` [Compound 136], the IC50 is reported as 5 µM. `CNS(=O)(=O)c1nn2cc(-c3c(F)c(F)c(F)c(F)c3F)nc2s1` [Compound 138, 6-(2,3,4,5,6-pentafluorophenyl)imidazo[2,1-b]-1,3,4-thiadiazole-2-N-methylsulfonamide] showed an IC50 of 2 µM. `CN(C)S(=O)(=O)c1nn2cc(-c3c(F)c(F)c(F)c(F)c3F)nc2s1` [Compound 140, 6-(2,3,4,5,6-pentafluorophenyl)imidazo[2,1-b]-1,3,4-thiadiazole-2-N,N-dimethylsulfonamide] showed an IC50 of 5 µM. Molecule `CCN(CC)S(=O)(=O)c1nn2cc(-c3cccc(OC)c3)nc2s1` [Compound 141] has an IC50 greater than 30 µM. `CN(C)S(=O)(=O)c1nn2cc(-c3ccc(Br)cc3)nc2s1` [Compound 143, 6-(4-Bromophenyl)imidazo[2,1-b]-1,3,4-thiadiazole-2-N,N-dimethylsulfonamide] showed an IC50 of 10 µM. `CN(C)S(=O)(=O)c1nn2c(Br)c(-c3ccc(Br)cc3)nc2s1` [Compound 144, hydrobromide] was tested, and the IC50 was 15 µM. `CN(C)S(=O)(=O)c1nn2cc(-c3cccc(O)c3)nc2s1` [Compound 145] gave an IC50 of 20 µM. With `CN(C)S(=O)(=O)c1nn2cc(-c3cccc(OC(=O)c4ccccc4)c3)nc2s1` [Compound 146, 6-(3-Benzoyloxyphenyl)imidazo[2,1-b]-1,3,4-thiadiazole-2-N,N-dimethylsulfonamide] the IC50 was 20 µM. `CN(C)S(=O)(=O)c1nn2cc(-c3ccc4ccccc4c3)nc2s1` [Compound 147, 6-(2-Naphthyl)imidazo[2,1-b]-1,3,4-thiadiazole-2-N,N-dimethylsulfonamide] showed an IC50 of 17 µM. Molecule `[N-]=[N+]=Nc1c(F)c(F)c(-c2cn3nc(S(N)(=O)=O)sc3n2)c(F)c1F` [Compound 151, 6-(4-Azido-2,3,5,6-tetraflourophenyl)imidazo[2,1-b]-1,3,4-thiadiazole-2-sulfonamide] has an IC50 of 2 µM. For `CN(C)S(=O)(=O)c1nn2cc(-c3c(F)c(F)c(N=[N+]=[N-])c(F)c3F)nc2s1` [Compound 152, 6-(4-azido-2,3,5,6-pentafluorophenyl)imidazo[2,1-b]-1,3,4-thiadiazole-2-N,N-dimethylsulfonamide], the IC50 was 2 µM. For `NS(=O)(=O)c1nn2cc(-c3ccc([N+](=O)[O-])cc3)nc2s1` [Compound 153, 6-(4-Nitrophenyl)imidazo[2,1-b]-1,3,4-thiadiazole-2-sulfonamide], the IC50 was 5 µM.

Same assay, conditions: concentrations as high as 50 μM
`CCN[C@H]1C[C@H](C)S(=O)(=O)c2sc(S(N)(=O)=O)cc21` [Dorzolamide, reference compound] was tested, and the “inhibition of Taxol™ induced killing of SCGs” value (“inhibition” for short) was “failed to significantly inhibit”. In the case of `CC(=O)Nc1ccc(S(=O)(=O)Nc2nnc(S(N)(=O)=O)s2)cc1` [N-acetylaminobenzolamide, reference compound], the “inhibition” value is reported as “failed to significantly inhibit”. `CC(=O)Nc1nnc(S(N)(=O)=O)s1` [acetazolamide, reference compound] was tested, and the “inhibition” value was “failed to significantly inhibit”. With `Nc1ccc(S(=O)(=O)Nc2nnc(S(N)(=O)=O)s2)cc1` [aminobenzolamide, reference compound] the “inhibition” value was “failed to significantly inhibit”. `CC(=O)/N=c1/sc(S(N)(=O)=O)nn1C` [methazolamide, reference compound] was tested, and the “inhibition” value was “failed to significantly inhibit”.

What follows are molecules tested against CA II (Homo sapiens, UniProt P00918) (assay: CA II inhibition). Conditions: read-out: IC(50), CA II inhibition.
Type: biochemical
Protocol: CA II inhabition was measured using the protocol described by Pocker, Y.'Stone, J. Biochemistry 1967, 6, 668.
With `NS(=O)(=O)c1nn2cc(-c3ccc(C(=O)O)cc3)nc2s1` [Compound 39] the IC50 was 154 nM.
